Results: patent US12447156B2, “Treating progressive familial intrahepatic cholestasis (PFIC) with IBAT inhibitors” (ALBIREO AB, priority 2020, dated 2025)

Tested on: children with PFIC1 or PFIC2
Assay: PEDFIC 1: quality of life (PedsQL and PedsQL Family Impact Module)
Format: in vivo, human
Method: Study design and eligibility was as follows. In PEDFIC 1, patients were randomized 1:1:1 to receive oral, once-daily placebo, odevixibat 40 μg/kg/day, or odevixibat 120 μg/kg/day for 24 weeks; patients who completed 24 weeks of treatment could enroll in an open-label extension. Patients between the ages of 6 months and 18 years with a diagnosis of PFIC1 or PFIC2 were eligible for the study if they had elevated serum bile acid levels (defined as ≥100 μmol/L averaged from 2 samples taken prior to randomization, ≥7 days apart) and significant pruritus as reported by caregivers (average score ≥2 on a scale of 0-4 in the 2 weeks prior to randomization using an observer-reported outcome instrument).
A change from baseline to week 24 for the Pediatric QoL Inventory (PedsQL) questionnaire was assessed as an exploratory endpoint. Caregivers of patients ≥2 years old completed the PedsQL questionnaire, which assessed patient functioning in physical, emotional, social, and school domains; the output is a score between 0 and 100, where higher scores indicate better functioning and a higher change from baseline indicates an improvement in QoL, In addition, caregivers completed the PedsQL Family Impact Module, which assesses physical, emotional, social, and cognitive functioning as well as communication, worry, daily activities, and family relationship domains, also on a scale of 0 to 100. Total scores at baseline and at week 24 for all treatment groups as well as mean changes in scores from baseline to week 24 are presented for both odevixibat doses combined vs placebo; these are summarized descriptively.

[1] = PEDFIC 1, all doses, placebo 7.9
[2] = Week 24, 120 μg/kg/day (n = 15)

CCCCC1(CCCC)CN(c2ccccc2)c2cc(SC)c(OCC(=O)N[C@@H](C(=O)N[C@@H](CC)C(=O)O)c3ccc(O)cc3)cc2S(=O)(=O)N1 [Odevixibat, 1,1-dioxo-3,3-dibutyl-5-phenyl-7-methylthio-8-(N-{(R)-α-[N-((S)-1-carboxypropyl)carbamoyl]-4-hydroxybenzyl}carbamoylmethoxy)-2,3,4,5-tetrahydro-1,2,5-benzothiadiazepine]
PedsQL total score, mean change from baseline to week 24 (PEDFIC 1, all doses, placebo 0.5): 7.8
PedsQL Family Impact Module Family relationships, mean change from baseline to week 24 (PEDFIC 1, all doses, placebo 2.1): 10.9
PedsQL Family Impact Module Cognitive, mean change from baseline to week 24 (PEDFIC 1, all doses, placebo 3.2): 16.4
PedsQL Family Impact Module Total score, mean change from baseline to week 24 (PEDFIC 1, all doses, placebo 5.6): 14.5
PedsQL Family Impact Module Emotional, mean change from baseline to week 24 [1]: 13.4
PedsQL Family Impact Module Worry, mean change from baseline to week 24 [1]: 12.8
PedsQL Family Impact Module Physical, mean change from baseline to week 24 (PEDFIC 1, all doses, placebo 8.1): 18.9
PedsQL Family Impact Module Social, mean change from baseline to week 24 (PEDFIC 1, all doses, placebo 8.5): 13.5
PedsQL Family Impact Module Daily activities, mean change from baseline to week 24 (PEDFIC 1, all doses, placebo 9.3): 21.1
PedsQL Emotional functioning, mean change from baseline to week 24 (PEDFIC 1, all doses, placebo 13.5): 14.1
PedsQL Social functioning, mean change from baseline to week 24 (PEDFIC 1, all doses, placebo −1.0): 3.6
PedsQL Family Impact Module Communication, mean change from baseline to week 24 (PEDFIC 1, all doses, placebo −4.4): 8.3
PedsQL school functioning, mean change from baseline to week 24 (PEDFIC 1, all doses, placebo −5.3): 2.3
PedsQL Physical functioning, mean change from baseline to week 24 (PEDFIC 1, all doses, placebo −5.9): 7.8
PedsQL Family Impact Module Cognitive functioning, Mean (SE) (Week 24, 40 μg/kg/day (n = 19)): 65.3 (4.9)
PedsQL Family Impact Module Communication, Mean (SE) (Week 24, 40 μg/kg/day (n = 19)): 57.0 (5.6)
PedsQL Family Impact Module Daily activities, Mean (SE) (Week 24, 40 μg/kg/day (n = 19)): 50.9 (6.1)
PedsQL Family Impact Module Emotional functioning, Mean (SE) (Week 24, 40 μg/kg/day (n = 19)): 55.8 (5.6)
PedsQL Family Impact Module Family relationships, Mean (SE) (Week 24, 40 μg/kg/day (n = 19)): 68.7 (5.9)
PedsQL Family Impact Module Physical functioning, Mean (SE) (Week 24, 40 μg/kg/day (n = 19)): 57.0 (5.7)
PedsQL Family Impact Module Social functioning, Mean (SE) (Week 24, 40 μg/kg/day (n = 19)): 61.8 (6.4)
PedsQL Family Impact Module Total score, Mean (SE) (Week 24, 40 μg/kg/day (n = 19)): 58.4 (4.7)
PedsQL Family Impact Module Worry, Mean (SE) (Week 24, 40 μg/kg/day (n = 19)): 47.9 (5.3)
PedsQL School functioning, Mean (SE) (Week 24, 40 μg/kg/day, n 9): 53.2 (5.2)
PedsQL Emotional functioning, Mean (SE) (Week 24, 40 μg/kg/day, n 13): 54.6 (4.7)
PedsQL Physical functioning, Mean (SE) (Week 24, 40 μg/kg/day, n 13): 56.3 (4.0)
PedsQL Social functioning, Mean (SE) (Week 24, 40 μg/kg/day, n 13): 63.1 (6.4)
PedsQL Total score, Mean (SE) (Week 24, 40 μg/kg/day, n 13): 56.8 (4.0)
PedsQL Family Impact Module Cognitive functioning, Mean (SE) [2]: 67.7 (6.2)
PedsQL Family Impact Module Communication, Mean (SE) [2]: 68.9 (5.6)
PedsQL Family Impact Module Daily activities, Mean (SE) [2]: 54.4 (8.1)
PedsQL Family Impact Module Emotional functioning, Mean (SE) [2]: 63.0 (5.9)
PedsQL Family Impact Module Family relationships, Mean (SE) [2]: 72.7 (5.6)
PedsQL Family Impact Module Physical functioning, Mean (SE) [2]: 63.3 (5.6)
PedsQL Family Impact Module Social functioning, Mean (SE) [2]: 64.6 (7.6)
PedsQL Family Impact Module Total score, Mean (SE) [2]: 63.5 (5.3)
PedsQL Family Impact Module Worry, Mean (SE) [2]: 52.0 (5.8)
PedsQL School functioning, Mean (SE) (Week 24, 120 μg/kg/day, n 10): 63.3 (7.6)
PedsQL Emotional functioning, Mean (SE) (Week 24, 120 μg/kg/day, n 11): 59.6 (6.9)
PedsQL Physical functioning, Mean (SE) (Week 24, 120 μg/kg/day, n 11): 56.8 (8.7)
PedsQL Social functioning, Mean (SE) (Week 24, 120 μg/kg/day, n 11): 65.9 (8.6)
PedsQL Total score, Mean (SE) (Week 24, 120 μg/kg/day, n 11): 60.7 (7.0)
PedsQL Family Impact Module Cognitive functioning, Mean (SE) (Week 24, All Doses (n = 34)): 66.3 (3.8)
PedsQL Family Impact Module Communication, Mean (SE) (Week 24, All Doses (n = 34)): 62.3 (4.1)
PedsQL Family Impact Module Daily activities, Mean (SE) (Week 24, All Doses (n = 34)): 52.5 (4.9)
PedsQL Family Impact Module Emotional functioning, Mean (SE) (Week 24, All Doses (n = 34)): 59.0 (4.1)
PedsQL Family Impact Module Family relationships, Mean (SE) (Week 24, All Doses (n = 34)): 70.4 (4.1)
PedsQL Family Impact Module Physical functioning, Mean (SE) (Week 24, All Doses (n = 34)): 59.8 (4.0)
PedsQL Family Impact Module Social functioning, Mean (SE) (Week 24, All Doses (n = 34)): 63.1 (4.8)
PedsQL Family Impact Module Total score, Mean (SE) (Week 24, All Doses (n = 34)): 60.6 (3.5)
PedsQL Family Impact Module Worry, Mean (SE) (Week 24, All Doses (n = 34)): 49.7 (3.9)
PedsQL School functioning, Mean (SE) (Week 24, All Doses, n 19): 58.5 (4.7)
PedsQL Emotional functioning, Mean (SE) (Week 24, All Doses, n 24): 56.9 (4.0)
PedsQL Physical functioning, Mean (SE) (Week 24, All Doses, n 24): 56.5 (4.4)
PedsQL Social functioning, Mean (SE) (Week 24, All Doses, n 24): 64.4 (5.1)
PedsQL Total score, Mean (SE) (Week 24, All Doses, n 24): 58.6 (3.8)
